According to ChEMBL document CHEMBL1201862, “PubChem BioAssay data set” (2004):
Blank lines part the entries; values can stand above or below the compound they belong to. The source made the active and inactive calls.

Assays:
[1] = growth suppression of PTEN-null colon cells, dose response, cell-based, HCT116 PTEN knockout (AID 1047); assay type: functional;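 also: HCT116 colon tumor cells with PTEN knocked out; cells exposed to compound for 60 hours before readout; potency for loss of cell viability measured by luminescence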
[2] = growth suppression of beta-catenin-knockout colon cells, dose response, cell-based, HCT116, human colon tumor (AID 1045); assay type: functional;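 also: HCT116 colon tumor cells with beta catenin knocked out; cells exposed to compound for 60 hours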
[3] = target: T1, High affinity choline transporter 1 (Homo sapiens, UniProt Q9GZV3); experiment: CHT inhibitors, dose response, cell-based, 5-point CRC, membrane potential dye (AID 504840); assay type: functional
T1 sequence (Q9GZV3 whole entry): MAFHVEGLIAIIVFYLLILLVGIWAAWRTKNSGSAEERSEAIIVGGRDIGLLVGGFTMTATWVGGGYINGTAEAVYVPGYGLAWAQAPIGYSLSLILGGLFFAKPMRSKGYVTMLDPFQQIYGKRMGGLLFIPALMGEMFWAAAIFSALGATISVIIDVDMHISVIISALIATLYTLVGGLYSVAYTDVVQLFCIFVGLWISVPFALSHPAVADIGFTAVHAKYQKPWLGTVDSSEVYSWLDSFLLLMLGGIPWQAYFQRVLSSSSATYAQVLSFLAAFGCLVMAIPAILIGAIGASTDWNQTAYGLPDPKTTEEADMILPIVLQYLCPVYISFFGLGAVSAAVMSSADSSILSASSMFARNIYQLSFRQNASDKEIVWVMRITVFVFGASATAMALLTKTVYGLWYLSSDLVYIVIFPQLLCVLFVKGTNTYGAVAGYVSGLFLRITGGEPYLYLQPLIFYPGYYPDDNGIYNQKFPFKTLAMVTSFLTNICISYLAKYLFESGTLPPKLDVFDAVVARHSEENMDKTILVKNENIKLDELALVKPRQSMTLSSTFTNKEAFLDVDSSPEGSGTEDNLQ

cells [4] = assay type: functional, cell-based
cells [5] = assay type: functional, cell-based; remark: listed apart in the source
[6] = target: T2, Type-1 angiotensin II receptor (Homo sapiens, UniProt P30556); experiment: AT1 receptor antagonists, dose response, selectivity assay for APJ receptor antagonist project, cell-based, uHTS hits (AID 463214); assay type: functional;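 also: antagonist potency against angiotensin II stimulated AT1 response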
T2 sequence (P30556 whole entry): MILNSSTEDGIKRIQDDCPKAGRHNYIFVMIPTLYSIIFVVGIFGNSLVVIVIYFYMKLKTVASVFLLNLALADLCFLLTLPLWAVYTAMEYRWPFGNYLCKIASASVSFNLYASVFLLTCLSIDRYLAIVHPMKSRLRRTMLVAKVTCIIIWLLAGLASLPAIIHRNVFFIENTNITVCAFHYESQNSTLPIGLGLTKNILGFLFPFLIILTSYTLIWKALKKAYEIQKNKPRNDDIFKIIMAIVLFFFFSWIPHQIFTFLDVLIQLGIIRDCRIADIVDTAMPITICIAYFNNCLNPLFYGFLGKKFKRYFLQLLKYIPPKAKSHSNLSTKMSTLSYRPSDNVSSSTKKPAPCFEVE

Beta-galactosidase = Beta-galactosidase (Escherichia coli, UniProt Q8VNN2); experiment: PubChem AID 485352; assay type: functional
Chain of Beta-galactosidase (Q8VNN2 whole entry): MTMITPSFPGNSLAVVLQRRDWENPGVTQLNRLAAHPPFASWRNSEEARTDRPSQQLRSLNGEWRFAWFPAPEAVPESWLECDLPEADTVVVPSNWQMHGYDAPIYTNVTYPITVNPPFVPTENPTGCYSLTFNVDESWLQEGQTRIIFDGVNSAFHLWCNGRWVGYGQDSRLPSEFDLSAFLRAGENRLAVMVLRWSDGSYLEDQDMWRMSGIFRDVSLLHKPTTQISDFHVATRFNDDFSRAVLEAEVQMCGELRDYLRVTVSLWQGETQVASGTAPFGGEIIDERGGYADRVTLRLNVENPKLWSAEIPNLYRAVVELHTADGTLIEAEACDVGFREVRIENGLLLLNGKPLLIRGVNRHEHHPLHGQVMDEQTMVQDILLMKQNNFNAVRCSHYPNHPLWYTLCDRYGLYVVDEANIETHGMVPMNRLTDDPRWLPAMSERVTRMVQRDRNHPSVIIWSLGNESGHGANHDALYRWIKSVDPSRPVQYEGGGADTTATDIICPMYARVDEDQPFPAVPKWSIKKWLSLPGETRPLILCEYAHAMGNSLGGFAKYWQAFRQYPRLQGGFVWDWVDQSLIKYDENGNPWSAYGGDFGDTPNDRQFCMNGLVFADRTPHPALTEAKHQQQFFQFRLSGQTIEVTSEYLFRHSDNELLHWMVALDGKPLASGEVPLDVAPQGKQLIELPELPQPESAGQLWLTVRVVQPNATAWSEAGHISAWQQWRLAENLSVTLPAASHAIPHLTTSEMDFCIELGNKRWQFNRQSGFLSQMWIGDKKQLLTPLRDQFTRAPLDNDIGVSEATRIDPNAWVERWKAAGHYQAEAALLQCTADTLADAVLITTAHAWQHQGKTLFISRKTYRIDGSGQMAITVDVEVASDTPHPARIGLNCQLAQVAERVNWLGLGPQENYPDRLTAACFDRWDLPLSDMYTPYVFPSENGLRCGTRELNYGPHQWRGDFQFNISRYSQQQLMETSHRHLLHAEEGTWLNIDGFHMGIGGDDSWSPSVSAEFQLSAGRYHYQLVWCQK

[7] = target: T3, Heat shock factor protein 1 (Mus musculus, UniProt P38532); experiment: inhibition of MG132-induced HSE-luciferase signal, confirmation, cell-based, NIH3T3, luminescence, dose retest (AID 2382); assay type: functional;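 also: NIH3T3 fibroblasts with HSF1-driven luciferase reporter stressed by proteasome inhibitor MG132; luminescence from HSF1-driven luciferase expression after 8 hours of MG132 stress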
T3 sequence (P38532 whole entry): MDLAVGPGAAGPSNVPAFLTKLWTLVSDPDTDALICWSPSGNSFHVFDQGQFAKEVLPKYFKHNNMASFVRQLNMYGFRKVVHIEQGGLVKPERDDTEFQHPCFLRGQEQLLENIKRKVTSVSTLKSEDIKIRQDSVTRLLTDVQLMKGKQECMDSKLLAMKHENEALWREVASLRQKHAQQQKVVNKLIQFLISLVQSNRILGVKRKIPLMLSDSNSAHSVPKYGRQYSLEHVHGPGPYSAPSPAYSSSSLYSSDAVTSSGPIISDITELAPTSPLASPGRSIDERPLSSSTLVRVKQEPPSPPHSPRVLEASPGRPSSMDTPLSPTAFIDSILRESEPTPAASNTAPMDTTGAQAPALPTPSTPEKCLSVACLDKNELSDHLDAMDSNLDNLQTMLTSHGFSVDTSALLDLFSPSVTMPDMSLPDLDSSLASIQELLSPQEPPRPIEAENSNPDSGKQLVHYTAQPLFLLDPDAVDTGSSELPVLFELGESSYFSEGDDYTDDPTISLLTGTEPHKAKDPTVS

[8] = target: T4, Ubiquitin-conjugating enzyme E2 N (Homo sapiens, UniProt P61088); assay type: functional;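 also: Dose-response confirmation in a TR-FRET assay detecting UBC13-driven polyubiquitin chain formation, inhibition measured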
T4 sequence (P61088 whole entry): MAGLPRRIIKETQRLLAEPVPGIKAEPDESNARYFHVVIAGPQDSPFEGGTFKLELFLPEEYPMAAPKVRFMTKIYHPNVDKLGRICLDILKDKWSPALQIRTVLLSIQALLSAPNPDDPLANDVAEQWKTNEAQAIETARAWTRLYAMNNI

[9] = target: Voltage-dependent T-type calcium channel subunit alpha-1H (Homo sapiens, UniProt O95180); assay type: functional;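 also: channel activity triggered by adding a high calcium stimulation buffer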
Chain of Voltage-dependent T-type calcium channel subunit alpha-1H (O95180 whole entry): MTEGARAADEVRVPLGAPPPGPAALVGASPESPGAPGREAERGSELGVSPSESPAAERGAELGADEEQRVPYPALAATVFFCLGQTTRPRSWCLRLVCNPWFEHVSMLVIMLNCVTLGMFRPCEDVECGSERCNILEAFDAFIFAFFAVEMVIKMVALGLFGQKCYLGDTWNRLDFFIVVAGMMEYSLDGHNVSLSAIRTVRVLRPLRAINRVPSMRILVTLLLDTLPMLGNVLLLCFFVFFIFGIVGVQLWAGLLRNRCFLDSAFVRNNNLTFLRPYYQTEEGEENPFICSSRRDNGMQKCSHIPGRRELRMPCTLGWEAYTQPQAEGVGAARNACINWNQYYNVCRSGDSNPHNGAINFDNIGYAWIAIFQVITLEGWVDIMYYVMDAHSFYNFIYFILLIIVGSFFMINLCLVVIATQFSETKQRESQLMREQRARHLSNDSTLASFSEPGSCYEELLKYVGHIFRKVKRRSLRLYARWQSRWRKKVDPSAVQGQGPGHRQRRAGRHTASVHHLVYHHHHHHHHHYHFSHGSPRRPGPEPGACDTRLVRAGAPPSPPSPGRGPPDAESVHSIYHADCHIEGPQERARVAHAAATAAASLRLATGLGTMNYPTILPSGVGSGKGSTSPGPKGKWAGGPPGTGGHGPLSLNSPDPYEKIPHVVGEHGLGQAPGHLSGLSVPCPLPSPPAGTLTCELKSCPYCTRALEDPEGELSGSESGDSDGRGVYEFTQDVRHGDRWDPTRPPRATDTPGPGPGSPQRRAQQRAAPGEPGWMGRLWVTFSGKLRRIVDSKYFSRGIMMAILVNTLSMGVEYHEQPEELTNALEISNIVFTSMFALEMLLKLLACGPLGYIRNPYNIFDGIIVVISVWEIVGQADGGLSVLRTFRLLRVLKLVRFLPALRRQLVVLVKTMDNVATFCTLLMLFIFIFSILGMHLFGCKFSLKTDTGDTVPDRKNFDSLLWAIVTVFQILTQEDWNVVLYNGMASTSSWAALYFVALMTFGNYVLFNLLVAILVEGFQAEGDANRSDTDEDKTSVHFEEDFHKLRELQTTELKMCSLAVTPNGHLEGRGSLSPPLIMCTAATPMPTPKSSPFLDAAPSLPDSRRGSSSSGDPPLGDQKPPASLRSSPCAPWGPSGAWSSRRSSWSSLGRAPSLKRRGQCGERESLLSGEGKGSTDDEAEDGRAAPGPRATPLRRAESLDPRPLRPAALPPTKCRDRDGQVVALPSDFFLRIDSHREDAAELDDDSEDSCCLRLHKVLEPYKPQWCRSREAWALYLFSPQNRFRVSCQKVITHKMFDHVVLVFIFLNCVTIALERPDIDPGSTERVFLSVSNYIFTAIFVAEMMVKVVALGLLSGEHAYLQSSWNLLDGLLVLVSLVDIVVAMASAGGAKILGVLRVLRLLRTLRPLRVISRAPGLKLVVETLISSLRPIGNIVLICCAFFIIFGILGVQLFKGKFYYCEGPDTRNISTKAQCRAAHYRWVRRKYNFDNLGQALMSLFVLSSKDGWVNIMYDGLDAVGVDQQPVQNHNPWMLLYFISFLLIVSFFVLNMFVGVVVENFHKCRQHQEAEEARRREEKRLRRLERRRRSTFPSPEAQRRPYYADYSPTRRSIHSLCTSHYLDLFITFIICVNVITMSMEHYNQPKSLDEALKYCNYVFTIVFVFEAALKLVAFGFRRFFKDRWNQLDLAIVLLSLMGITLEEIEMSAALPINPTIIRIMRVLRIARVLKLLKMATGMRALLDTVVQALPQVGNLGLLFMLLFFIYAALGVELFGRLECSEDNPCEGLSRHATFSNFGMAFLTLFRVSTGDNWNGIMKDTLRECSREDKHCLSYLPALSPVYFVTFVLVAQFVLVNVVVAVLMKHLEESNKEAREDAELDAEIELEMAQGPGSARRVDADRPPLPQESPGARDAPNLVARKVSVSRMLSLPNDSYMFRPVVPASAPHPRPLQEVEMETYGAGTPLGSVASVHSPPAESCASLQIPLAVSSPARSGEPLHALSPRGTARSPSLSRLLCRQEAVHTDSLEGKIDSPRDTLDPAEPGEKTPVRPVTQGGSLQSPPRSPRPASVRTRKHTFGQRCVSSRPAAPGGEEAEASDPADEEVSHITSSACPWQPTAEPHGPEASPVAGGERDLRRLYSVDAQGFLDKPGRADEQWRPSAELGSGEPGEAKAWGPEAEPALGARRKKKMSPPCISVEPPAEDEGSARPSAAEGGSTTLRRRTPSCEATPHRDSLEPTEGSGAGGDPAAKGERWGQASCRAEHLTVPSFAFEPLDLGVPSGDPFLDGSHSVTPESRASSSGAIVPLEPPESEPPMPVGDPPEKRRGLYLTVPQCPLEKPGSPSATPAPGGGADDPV

[10] = target: T5, Calpain-2 catalytic subunit (Sus scrofa, UniProt P43367); experiment: pig calpain II inhibitor potency, dose response, biochemical, fluorogenic peptide substrate (AID 1420); assay type: functional
T5 sequence (P43367 whole entry): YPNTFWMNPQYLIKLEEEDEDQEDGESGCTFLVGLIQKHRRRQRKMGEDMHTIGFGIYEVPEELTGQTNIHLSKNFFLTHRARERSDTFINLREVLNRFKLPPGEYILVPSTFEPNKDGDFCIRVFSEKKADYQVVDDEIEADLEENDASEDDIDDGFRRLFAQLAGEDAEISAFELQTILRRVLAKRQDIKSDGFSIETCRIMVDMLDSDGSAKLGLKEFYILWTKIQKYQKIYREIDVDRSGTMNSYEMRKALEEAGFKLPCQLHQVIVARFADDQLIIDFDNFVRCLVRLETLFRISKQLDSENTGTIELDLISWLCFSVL

[11] = Luminescence Cell-Based Dose Retest to Confirm Inhibitors of Cancer Stem Cells. [Related pubchem assays (depositor defined):AID2717, AID2721]; assay type: functional; conditions: Homo sapiens
[12] = target: T6, Rac GTPase-activating protein 1 (Homo sapiens, UniProt Q9H0H5); experiment: MgcRacGAP GTPase-activating activity inhibitors, confirmation, biochemical, ADP Hunter fluorescence, primary and confirmatory (AID 624330); assay type: functional
T6 sequence (Q9H0H5 whole entry): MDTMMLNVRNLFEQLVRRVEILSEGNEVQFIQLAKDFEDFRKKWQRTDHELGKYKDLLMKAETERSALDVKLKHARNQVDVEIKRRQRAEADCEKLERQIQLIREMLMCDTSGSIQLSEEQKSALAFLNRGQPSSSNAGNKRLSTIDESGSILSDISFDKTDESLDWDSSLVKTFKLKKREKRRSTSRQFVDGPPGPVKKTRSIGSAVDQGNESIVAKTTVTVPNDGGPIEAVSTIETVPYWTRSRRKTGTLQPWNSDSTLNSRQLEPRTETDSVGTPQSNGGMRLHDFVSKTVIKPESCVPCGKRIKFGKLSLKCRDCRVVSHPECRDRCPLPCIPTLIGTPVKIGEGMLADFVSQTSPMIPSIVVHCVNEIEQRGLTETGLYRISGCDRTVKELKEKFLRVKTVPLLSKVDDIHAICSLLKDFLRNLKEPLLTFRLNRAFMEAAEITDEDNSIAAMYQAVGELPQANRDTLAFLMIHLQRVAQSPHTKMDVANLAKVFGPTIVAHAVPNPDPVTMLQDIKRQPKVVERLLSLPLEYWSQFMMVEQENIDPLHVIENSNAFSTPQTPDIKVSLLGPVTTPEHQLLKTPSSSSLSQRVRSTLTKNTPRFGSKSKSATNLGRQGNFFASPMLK
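For AC50 in this document: cells exposed to compound for roughly 70 hours or longer before luminescence read.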

SMILES: COc1ccc(-c2csc3nc(-c4cccnc4)nc(Cl)c23)cc1OC
- EC50 [1]: 11.5 µM (active)
- EC50 [2]: 10.4 µM (active)

SMILES: CCN1CCN(c2ccc(NC(=O)c3ccc4c(c3)nc(O)n4Cc3ccc(OC)cc3)cc2)CC1
- EC50 [1]: 34.2 µM (active)
- EC50 [2]: 32.2 µM (active)

SMILES: CCCCn1nc2cc(C(=O)NCCc3cccs3)ccc2c1OCC
- IC50 [3]: 11.8 µM (active)

SMILES: COc1ccc(N2CCN(S(=O)(=O)c3cc(-c4cc(C)no4)ccc3C(C)C)CC2)cc1
- EC50 (cells [4]): > 350 µM (not active)
- EC50 (cells [5]): > 350 µM (not active)

SMILES: CCCN=C(S)N1CCCC(c2nc3ccccc3[nH]2)C1 (stereo not drawn)
- EC50 (cells [4]): > 350 µM (not active)
- EC50 [7]: > 195 µM (not active)
- EC50 (cells [5]): > 350 µM (not active)

SMILES: COc1ccc(CCN(C)C(=O)c2ccc(COc3ccccc3)o2)cc1OC
- IC50 [8]: > 20 µM (inactive)
- IC50 [3]: 13.8 µM (active)

SMILES: O=C(CSc1c[nH]c2ccccc12)NCc1ccc2c(c1)OCO2
- EC50 (cells [4]): > 350 µM (not active)
- EC50 (cells [5]): > 350 µM (not active)

SMILES: N=c1c2c(ncn1Cc1ccco1)Oc1c(ccc3ccccc13)C2c1ccccc1 (stereo not drawn)
- EC50 [1]: 5.53 µM (active)
- EC50 [2]: 5.92 µM (active)
- AC50 [11]: 2.25 µM (active)

SMILES: CCCOc1cccc(C2C(C(=O)c3ccco3)=C(O)C(=O)N2CCCn2ccnc2)c1 (stereo not drawn)
- EC50 (cells [4]): > 350 µM (not active)
- EC50 (cells [5]): > 350 µM (not active)

SMILES: Cc1ccc(NC(=O)CCC(=O)N/N=C/c2ccc(O)cc2O)cc1
- EC50 (cells [4]): > 350 µM (not active)
- IC50 [12]: 56.6 µM (active)
- EC50 (cells [5]): > 350 µM (not active)

SMILES: Cn1c(=O)cc(C(=O)N/N=C/c2ccc(F)cc2)[nH]c1=O
- EC50 (cells [4]): > 350 µM (not active)
- EC50 (cells [5]): > 350 µM (not active)

Now from value to compound:

- IC50 [3]: 0.794 µM (active)
SMILES: CCOC(=O)c1cccc(NC(=O)CSc2nnc(C)n2Cc2ccccc2)c1

- IC50 [6]: 39.3 µM (not active)
- EC50 (Beta-galactosidase): > 40 µM (inactive)
SMILES: Cc1ccccc1N=C(S)NNc1ncc(C(F)(F)F)cc1Cl

- EC50 [9]: 8.73 µM (active)
SMILES: Cc1nc(-c2ccccc2)sc1-c1nc(-c2cccnc2)ncc1S(=O)(=O)c1ccccc1

- EC50 [9]: 10.3 µM (active)
SMILES: CCN(CC)S(=O)(=O)c1ccc(NC(=O)CCC2CCCCC2)cc1

- EC50 [9]: 3.32 µM (active)
SMILES: COc1cccc(CNC(=O)CSCc2cnn(-c3ccccc3)c2-n2cccc2)c1OC

- IC50 [10]: 9.49 µM (not active)
- EC50 [9]: 3.96 µM (active)
SMILES: Cc1cc(NC(=O)COC(=O)C(Nc2ccc(C(F)(F)F)cc2Cl)C(C)C)no1 (stereo not drawn)

- IC50 [3]: 13.2 µM (active)
SMILES: CC(C)c1nc(C(=O)N2CCCC(N3CCN(c4cccc(Cl)c4)CC3)C2)cs1 (stereo not drawn)
